Target: T1, WNK3 (Homo sapiens, UniProt Q9BYP7)
T1 construct: purchased Thermo Fisher Scientific (Life Technologies) SelectScreen
Assay: SelectScreen LanthaScreen
Assay type: binding
Conditions: read-out: % displacement
Method in brief: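 SelectScreen broad panel; activity (Z'LYTE, Adapta) plus binding formats. ATP: Km app for CSF1R Z'LYTE; 10 for CAMK1 Adapta. Readout = % per kinase.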

T1 sequence (Q9BYP7 whole entry): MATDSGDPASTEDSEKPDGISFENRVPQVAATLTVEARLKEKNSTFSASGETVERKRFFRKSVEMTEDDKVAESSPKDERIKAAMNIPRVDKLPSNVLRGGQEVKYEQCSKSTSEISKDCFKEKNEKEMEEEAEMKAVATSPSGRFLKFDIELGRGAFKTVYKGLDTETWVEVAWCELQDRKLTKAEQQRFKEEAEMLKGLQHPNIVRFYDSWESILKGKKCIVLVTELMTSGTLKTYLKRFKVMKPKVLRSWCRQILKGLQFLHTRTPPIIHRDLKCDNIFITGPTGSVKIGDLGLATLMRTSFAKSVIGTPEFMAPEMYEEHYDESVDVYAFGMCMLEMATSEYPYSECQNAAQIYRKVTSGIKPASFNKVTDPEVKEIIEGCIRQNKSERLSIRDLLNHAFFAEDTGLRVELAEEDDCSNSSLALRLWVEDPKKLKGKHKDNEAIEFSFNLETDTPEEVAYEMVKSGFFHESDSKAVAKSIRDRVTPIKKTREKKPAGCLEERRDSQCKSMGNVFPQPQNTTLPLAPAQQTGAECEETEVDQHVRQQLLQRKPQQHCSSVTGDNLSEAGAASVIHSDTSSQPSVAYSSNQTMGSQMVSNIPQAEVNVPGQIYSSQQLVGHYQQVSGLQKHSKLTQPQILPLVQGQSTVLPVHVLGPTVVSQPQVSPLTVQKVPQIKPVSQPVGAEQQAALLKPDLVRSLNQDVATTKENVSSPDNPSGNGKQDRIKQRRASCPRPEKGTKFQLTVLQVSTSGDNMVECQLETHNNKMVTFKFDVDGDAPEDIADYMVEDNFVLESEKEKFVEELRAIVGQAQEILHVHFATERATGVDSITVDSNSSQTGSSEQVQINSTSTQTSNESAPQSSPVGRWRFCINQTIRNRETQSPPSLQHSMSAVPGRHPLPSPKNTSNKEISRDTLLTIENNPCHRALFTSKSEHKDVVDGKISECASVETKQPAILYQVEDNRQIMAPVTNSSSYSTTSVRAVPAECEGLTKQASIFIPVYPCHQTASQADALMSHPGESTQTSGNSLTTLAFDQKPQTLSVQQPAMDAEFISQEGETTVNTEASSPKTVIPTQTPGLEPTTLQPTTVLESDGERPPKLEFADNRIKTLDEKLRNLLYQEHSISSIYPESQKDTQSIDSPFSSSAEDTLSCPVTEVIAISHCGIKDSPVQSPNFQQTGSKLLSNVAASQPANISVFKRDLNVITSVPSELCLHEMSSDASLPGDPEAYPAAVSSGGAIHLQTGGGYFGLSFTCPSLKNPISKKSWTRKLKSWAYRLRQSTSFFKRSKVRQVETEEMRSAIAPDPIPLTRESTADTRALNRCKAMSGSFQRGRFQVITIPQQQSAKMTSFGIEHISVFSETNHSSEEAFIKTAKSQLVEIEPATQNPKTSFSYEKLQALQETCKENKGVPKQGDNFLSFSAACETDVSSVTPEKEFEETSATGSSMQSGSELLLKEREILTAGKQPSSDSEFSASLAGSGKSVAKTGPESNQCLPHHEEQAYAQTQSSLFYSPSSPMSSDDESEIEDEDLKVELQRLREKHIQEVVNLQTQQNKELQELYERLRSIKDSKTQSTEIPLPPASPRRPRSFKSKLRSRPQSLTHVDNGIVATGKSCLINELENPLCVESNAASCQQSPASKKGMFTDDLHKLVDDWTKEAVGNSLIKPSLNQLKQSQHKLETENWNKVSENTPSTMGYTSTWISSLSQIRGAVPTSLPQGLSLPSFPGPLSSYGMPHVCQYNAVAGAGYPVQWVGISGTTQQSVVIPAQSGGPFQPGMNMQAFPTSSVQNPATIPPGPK

With CN(C(=O)CN1CCOCC1)c1ccc2sc3c(-c4cccc5c(=O)cc(N6CC7CCC(C6)O7)oc45)cccc3c2c1 [NU5455] the inhibition at 1 µM was -1.2%.

— publication PMC6934184, “Selective DNA-PKcs inhibition extends the therapeutic index of localized radiotherapy and chemotherapy” (The Journal of Clinical Investigation, 2019)
